PubChem BioAssay (NCI)
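GI50: concentration for 50% inhibition of growth. The concentration for full growth arrest is given as TGI.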

Legend:
Assay in all cases: NCI-60 cell line screen, 384-well format
PC-3 prostate = test system: PC-3 prostate
SNB-19 CNS = test system: SNB-19 CNS
HL-60(TB) leukemia = test system: HL-60(TB) leukemia
SNB-75 CNS = test system: SNB-75 CNS
786-0 renal = test system: 786-0 renal
M14 melanoma = test system: M14 melanoma
DU-145 prostate = test system: DU-145 prostate
NCI-H226 lung = test system: NCI-H226 lung
SR leukemia = test system: SR leukemia
MDA-MB-435 melanoma = test system: MDA-MB-435 melanoma
NCI/ADR-RES ovarian = test system: NCI/ADR-RES ovarian
CCRF-CEM leukemia = test system: CCRF-CEM leukemia
HCT-15 colon = test system: HCT-15 colon

For `O=C(Nc1cccc(NS(=O)(=O)c2ccc(F)cc2)c1)c1ccc(-c2ccccc2)cc1`, the GI50 (PC-3 prostate) was 3.36 µM, the TGI (PC-3 prostate) was 11.5 µM and the GI50 (SNB-19 CNS) was 4.04 µM. The TGI (SNB-19 CNS) was 21.7 µM, the GI50 (HL-60(TB) leukemia) was 1.73 µM and the TGI (HL-60(TB) leukemia) was 3.46 µM. For the same compound, the GI50 (SNB-75 CNS) was 5.65 µM, the TGI (SNB-75 CNS) was 25.1 µM and the GI50 (786-0 renal) was 2.95 µM. It also gave a TGI (786-0 renal) of 10.6 µM, a GI50 (M14 melanoma) of 6.38 µM and a TGI (M14 melanoma) of 19.5 µM. It also gave a GI50 (DU-145 prostate) of 4.44 µM, a TGI (DU-145 prostate) of 26.5 µM and a GI50 (NCI-H226 lung) of 5.91 µM. The TGI (NCI-H226 lung) was 20.7 µM, the GI50 (SR leukemia) was 1.76 µM and the TGI (SR leukemia) was 3.31 µM. It also gave a GI50 (MDA-MB-435 melanoma) of 4.59 µM, a TGI (MDA-MB-435 melanoma) of 17.1 µM and a GI50 (NCI/ADR-RES ovarian) of 2.55 µM. For the same compound, the TGI (NCI/ADR-RES ovarian) was 9.38 µM, the GI50 (CCRF-CEM leukemia) was 2.33 µM and the TGI (CCRF-CEM leukemia) was 5.8 µM. For the same compound, the GI50 (HCT-15 colon) was 4.05 µM and the TGI (HCT-15 colon) was 19.5 µM.
